Test systems include TK-10; HL-60; SK-MEL-2; A549; HCT-116; MDA-MB-435; MCF7; SK-MEL-28; U-251; RXF 393; COLO 205; UACC-257; SN12C; HT-29; SF-295; MDA-N; MOLT-4; HCC 2998; T47D.
What all share (assay): inhibition of tumour cell growth, NCI panel, 48 h

The structures appear in SMILES notation.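 Protocol summary: plate cells (96-well), add compound at 5 concentrations, incubate 48 h, interpolate endpoints linearly. GI50: concentration for 50% inhibition of growth.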 The source made the active and inactive calls. Rule as the data show it: active = GI50 up to about 1.1 µM and inactive = higher.

For `O=C(O)c1ccn(-c2cccc(-n3ccc(C(=O)O)n3)n2)n1`, the GI50 in the assay with TK-10, with HL-60, with SK-MEL-2, in the assay on A549, in the assay on HCT-116 and in the assay on MDA-MB-435 was > 100 µM (inactive) in each case. Moreover, the GI50 in the assay with MCF7, in the assay with SK-MEL-28, in the assay on U-251, in the assay with RXF 393, in the assay on COLO 205 and in the assay with UACC-257 was > 100 µM (inactive) each time. The GI50 with SN12C, with HT-29, with SF-295, in the assay with MDA-N and in the assay with MOLT-4 was > 100 µM (inactive) throughout.
Regarding `COc1cc2c(cc1OCCCC(=O)Nc1cc(C(=O)NCCCN(C)C)n(C)n1)N=CC1CCCN1C2=O` (configuration not stated), the GI50 was 11.1 µM (inactive) with HCC 2998; 7.4 µM (inactive) in the assay on TK-10; 9.66 µM (inactive) with T47D; 10.8 µM (inactive) in the assay on SK-MEL-2; > 19.7 µM (inactive) with A549; 12.9 µM (inactive) in the assay on HCT-116. The GI50 is 40.9 µM (inactive) with MDA-MB-435; 10.1 µM (inactive) with MCF7; 5.46 µM (inactive) in the assay on SK-MEL-28; 8.77 µM (inactive) in the assay with U-251; 9.18 µM (inactive) in the assay with RXF 393; 8.93 µM (inactive) with COLO 205. The GI50 was 7.45 µM (inactive) with UACC-257; 7.11 µM (inactive) in the assay on SN12C; 7.31 µM (inactive) with HT-29; > 100 µM (inactive) in the assay on SF-295; 23.3 µM (inactive) in the assay with MDA-N; 0.347 µM (active) with MOLT-4.
Consider `COC(=O)C1=C(C)C=C(N2CCOCC2)C(C(=O)OC)C1c1ccccc1` (configuration not stated), for which the GI50 in the assay with HCC 2998, in the assay with TK-10, with T47D, in the assay on SK-MEL-2, in the assay with A549 and in the assay with HCT-116 was > 10 µM (inactive) in each case. Besides, the GI50 with MDA-MB-435, with MCF7, in the assay on SK-MEL-28, in the assay on U-251, in the assay on RXF 393 and in the assay with COLO 205 was > 10 µM (inactive) in each case. For the same compound, the GI50 in the assay with UACC-257, in the assay on SN12C, in the assay with HT-29, in the assay on SF-295, with MDA-N and with MOLT-4 was > 10 µM (inactive) each time.
Take `COc1ccc(/N=N/C(=NNC(=O)c2ccc(C)cc2)c2ccc(N(C)C)cc2)cc1`: the GI50 in the assay on HCC 2998 is 35.3 µM (inactive); in the assay with TK-10 it was > 100 µM (inactive); in the assay on HL-60, 2.32 µM (inactive); in the assay with SK-MEL-2 it was 50.8 µM (inactive); in the assay with A549, 48.3 µM (inactive); in the assay on HCT-116, 34.4 µM (inactive). Moreover, the GI50 with MDA-MB-435 is 20.1 µM (inactive); with MCF7, 17.1 µM (inactive); in the assay on SK-MEL-28 it was > 59.7 µM (inactive); in the assay on U-251 it was 63.7 µM (inactive); in the assay with RXF 393, 32 µM (inactive); in the assay with COLO 205, 6.84 µM (inactive). Further, the GI50 in the assay with UACC-257 was 33.3 µM (inactive); in the assay on SN12C, 56.6 µM (inactive); in the assay with HT-29, 30.3 µM (inactive); with SF-295, 28.4 µM (inactive); in the assay on MDA-N, 23.8 µM (inactive); with MOLT-4 it was 20.9 µM (inactive).
Take `ONCCCn1cnc2c(NC3CC3)ncnc21`: the GI50 in the assay with HCC 2998, in the assay on TK-10, in the assay on T47D, in the assay with SK-MEL-2, with A549 and in the assay with HCT-116 was > 100 µM (inactive) throughout. Also, the GI50 with MDA-MB-435, with MCF7, in the assay with SK-MEL-28, with U-251, in the assay with RXF 393 and in the assay on COLO 205 was > 100 µM (inactive) throughout. Besides, the GI50 in the assay with UACC-257, with SN12C, in the assay on HT-29, in the assay with SF-295, in the assay with MDA-N and in the assay with MOLT-4 was > 100 µM (inactive) in each case.
In the case of `CC1(C)OCC(C2OC(OC(=O)c3ccc([N+](=O)[O-])cc3)C3OC(C)(C)OC23)O1` (configuration not stated), the GI50 in the assay on HCC 2998, in the assay on TK-10, in the assay with SK-MEL-2, with A549, with HCT-116 and in the assay with MDA-MB-435 was > 100 µM (inactive) in each case. Moreover, the GI50 in the assay on MCF7 is > 100 µM (inactive); in the assay with SK-MEL-28, > 100 µM (inactive); in the assay with U-251, 49 µM (inactive); with RXF 393 it was 58.1 µM (inactive); in the assay with COLO 205 it was > 100 µM (inactive); in the assay with UACC-257, > 100 µM (inactive). The GI50 in the assay with SN12C was > 100 µM (inactive); with HT-29, > 100 µM (inactive); in the assay on SF-295, 53.2 µM (inactive); in the assay on MDA-N, > 100 µM (inactive); with MOLT-4, > 100 µM (inactive).
In the case of `CCCCCCCCCCCCCCCCCCNc1ccn(C2OC(COP(=O)(O)OC3CC(n4cc(F)c(=O)[nH]c4=O)OC3COP(=O)(O)OCC3OC(n4ccc(N)nc4=O)C(O)C3O)C(O)C2O)c(=O)n1` (configuration not stated), the GI50 in the assay with HCC 2998 was 2.35 µM (inactive); in the assay with TK-10, 2.56 µM (inactive); in the assay with HL-60 it was 0.26 µM (active); with T47D, 24.5 µM (inactive); in the assay with SK-MEL-2, 18.1 µM (inactive); with A549, 0.0906 µM (active). In addition, the GI50 with HCT-116 is 1.03 µM (active); in the assay with MDA-MB-435, 8.18 µM (inactive); with MCF7, 0.276 µM (active); with SK-MEL-28, 24.7 µM (inactive); in the assay with U-251, 7.67 µM (inactive); in the assay on RXF 393, 16 µM (inactive). In addition, the GI50 in the assay on COLO 205 is 8.17 µM (inactive); in the assay on UACC-257, 22.6 µM (inactive); in the assay with SN12C, 15.8 µM (inactive); with HT-29, 13.7 µM (inactive); with SF-295 it was 0.413 µM (active); with MOLT-4, 0.611 µM (active).
As for `COc1cc(-c2coc3c(OC)c(OC4OC(COC5OC(C)C(O)C(O)C5O)C(O)C(O)C4O)c(OC)c(O)c3c2=O)cc(C)c1O` (configuration not stated), the GI50 is 16.1 µM (inactive) in the assay on HCC 2998; 34.8 µM (inactive) in the assay on TK-10; 15.5 µM (inactive) with T47D; 23.8 µM (inactive) in the assay on SK-MEL-2; 23.8 µM (inactive) with A549; 0.185 µM (active) with HCT-116. Further, the GI50 in the assay with MDA-MB-435 was 16 µM (inactive); with MCF7, 12.3 µM (inactive); in the assay with SK-MEL-28 it was 15.1 µM (inactive); in the assay on U-251, 15.5 µM (inactive); in the assay on RXF 393, 13 µM (inactive); with COLO 205, 19.6 µM (inactive). The GI50 with UACC-257 is 22.3 µM (inactive); in the assay with SN12C, 1.68 µM (inactive); in the assay with HT-29, 19.5 µM (inactive); with SF-295 it was 16.6 µM (inactive); in the assay with MDA-N, 0.873 µM (active); in the assay on MOLT-4, 3.73 µM (inactive).
With `O=[N+]([O-])c1ccc(-c2nnc(C34CC5CC(CC(C5)C3)C4)o2)cc1`, the GI50 in the assay on HCC 2998, in the assay on TK-10, in the assay on HL-60, in the assay with T47D, in the assay with SK-MEL-2 and in the assay with A549 was > 100 µM (inactive) each time. The GI50 with HCT-116, in the assay on MDA-MB-435, in the assay on SK-MEL-28, with U-251, in the assay with RXF 393 and with COLO 205 was > 100 µM (inactive) throughout. Further, the GI50 with SN12C, in the assay with HT-29, in the assay with SF-295, in the assay with MDA-N and in the assay on MOLT-4 was > 100 µM (inactive) throughout.
With `O=C(O)c1cc(NCc2cc(O)ccc2O)ccc1O` [LAVENDUSTIN C], the GI50 in the assay on HCC 2998 was > 100 µM (inactive); in the assay with TK-10, > 100 µM (inactive); in the assay with T47D, 35.6 µM (inactive); in the assay with SK-MEL-2, > 100 µM (inactive); in the assay on A549, > 100 µM (inactive); with HCT-116, 49.9 µM (inactive). Moreover, the GI50 was 27 µM (inactive) with MDA-MB-435; > 100 µM (inactive) in the assay on MCF7; > 100 µM (inactive) with SK-MEL-28; > 100 µM (inactive) in the assay on U-251; > 100 µM (inactive) with RXF 393; > 100 µM (inactive) with COLO 205. Also, the GI50 in the assay with UACC-257 is > 100 µM (inactive); in the assay with SN12C, > 100 µM (inactive); in the assay on HT-29, > 100 µM (inactive); in the assay on SF-295 it was > 100 µM (inactive); with MDA-N, 24.8 µM (inactive).
On to `O=c1c(O)c(-c2cc(O)c(O)c(O)c2)oc2cc(O)cc(O)c12` [MYRICETIN], for which the GI50 with TK-10 was > 100 µM (inactive); in the assay with HL-60, 56.6 µM (inactive); in the assay with T47D, > 100 µM (inactive); in the assay on SK-MEL-2, > 100 µM (inactive); in the assay with A549, 33.8 µM (inactive); in the assay with MDA-MB-435, 17.7 µM (inactive). Further, the GI50 in the assay with MCF7 is 18.5 µM (inactive); in the assay with SK-MEL-28 it was > 100 µM (inactive); in the assay on U-251, 18.7 µM (inactive); with RXF 393 it was 20.8 µM (inactive); in the assay with COLO 205, 65.9 µM (inactive); in the assay on UACC-257, 29.2 µM (inactive). Also, the GI50 in the assay on HT-29 was 20.3 µM (inactive); in the assay on SF-295, 20.3 µM (inactive); in the assay with MDA-N, 10 µM (inactive); in the assay with MOLT-4, 54.6 µM (inactive).

(Values after ChEMBL document CHEMBL1201862, “PubChem BioAssay data set” (2004).)
